Read-outs that look alike come from different tables or passages of the source.

One may read the MRT as a mean duration of stay, worked out from the concentration-time curve. The clearance is the rate of elimination divided by the concentration. Low values mean inefficient removal, high ones efficient removal. Broadly, the bioavailability is dose-corrected exposure relative to a reference, in per cent. Low readings indicate little systemic uptake, high ones much systemic uptake.

The test system of series [1] is mice. Briefly: Acute toxicity, single oral dose 2,000 mg/kg, mice. Format: in vivo. The conditions noted are these: 2,000 mg/kg p.o., 5 male and 5 female mice, 14 days.
In another series the test system is blood glucose. Briefly: Test for hypoglycemic activity in fasted female rats (oral). Format: in vivo. The following applies: Rattus norvegicus, po, read-out: Change in glucose content compared with control. How it is done:
Blood samples were taken immediately before the administration of the test compound and 1, 2, 3 and 4 hours afterwards, in each case from the retroorbital Venous plexus. 50 μl of each sample were deproteinated with 0.5 ml of 0.33 N perchloric acid and centrifuged. The glucose in the supernatant fluid was measured using the hexokinase method with the aid of an analytical photometer. The statistical evaluation was made using the t-test according to Student with p=0.05 as the limit of significance.

In series [2] the test system is mice. Briefly: Acute toxicity of compound N, single oral dose, mice. Format: in vivo. The conditions noted are these: 14 days. Here is the method: The toxic effect of a single dose of compound N administered orally (suspended in 1% methyl cellulose) was tested in male and female mice of our own strain weighing from 20-26 g over an observation period of 14 days.

In the next series the test system is blood sugar. Put plainly: Blood sugar-lowering effect of the enantiomers in fasted female rats (oral). It is filed as in vivo. The conditions noted are these: 1.0 mg/kg p.o. How it is done: The substances to be investigated were suspended in 1.5% methylcellulose immediately before the start of the test and administered into the oesophagus. […] Glucose was measured in the supernatant by the hexokinase method using an analytical photometer. The statistical evaluation was carried out using the Student's t-test with p=0.05 as the limit of significance. Table 1 which follows contains the statistically significant values as percentage deviations from the control: […]

The nature of a further series: clinical. The conditions noted are these: human, plasma, 1 mg.

Description for clinical: More specifically, the studies which follow were carried out on healthy male volunteers in whom the levels of glucose and active substance in the course of time were determined:
In the interests of more precise clarification, study 5 was carried out (randomised, open, crossover). […] 2 hours after administration a standard breakfast (B) was eaten, 5 hours after administration a standard lunch (L) was eaten and 10 hours after administration a standard dinner (D) was eaten. Blood samples were taken at different times. The glucose concentrations were measured in the plasma as in study 1. […] The plasma concentrations of AG-EE 624 ZW were calculated as the difference between the two concentrations found:

With `CCOc1cc(CC(=O)NC(c2ccccc2)c2ccccc2N2CCCCC2)ccc1C(=O)O` (stereo not drawn) [D, 2-ethoxy-4-[N-(α-phenyl-2-piperidino-benzyl)-aminocarbonylmethyl]-benzoic acid], the Deaths entry in the series on mice [1] is recorded as “only one animal in this group died”. In addition, the change in vivo at 1 mg/kg with blood glucose (1 h) is -42%; in the series with blood glucose (2 h), -54%; in the series on blood glucose (3 h) it was -37%; with blood glucose (4 h) it was -34%.
Turning to `CCOc1cc(CC(=O)NC(CC(C)C)c2ccccc2N2CCCCC2)ccc1C(=O)O` (racemic) [N, 2-ethoxy-4-[N-{1-(2-piperidino-phenyl)-3-methyl-1-butyl}-aminocarbonylmethyl]-benzoic acids], the change in vivo at 0.1 mg/kg in the series on blood glucose (1 h) was -38%; in the series with blood glucose (2 h), -44%; in the series on blood glucose (3 h), -41%; in the series with blood glucose (4 h), -40%. The Deaths in the series on mice [2] (1000 mg/kg p.o.) is listed as 0 out of 6 animals died. In addition, the Approximate acute toxicity in the series with mice [2] (p.o.) is on record as over 1000 mg/kg.
Regarding `CCOc1cc(CC(=O)N[C@H](CC(C)C)c2ccccc2N2CCCCC2)ccc1C(=O)O` [AG-EE 624 ZW, (R)(-)-2-ethoxy-4-[N-[1-(2-piperidino-phenyl)-3-methyl-1-butyl]aminocarbonylmethyl]-benzoic acid], the “Glucose, percentage deviation from control” value in the series on blood sugar (1 h), with blood sugar (2 h), in the series on blood sugar (3 h) and in the series on blood sugar (4 h) was “n.s” each time. Moreover, the MRT in “clinical” (iv) stood at 3.3 ± 1.7 h. In the series “clinical” (iv), this compound showed a clearance of 75 ± 34 mL/min. In the series “clinical” (po), this compound registered a bioavailability of 83 ± 32%.
